According to US9549911B2, “Ginger metabolites and uses thereof” (North Carolina A&T State University, priority 2012, dated 2017):
Like-named read-outs stand apart in the source and are kept apart here.

Legend:
[1] = system: HCT-116 cells; assay: Measurement of reactive oxygen species (DCFH-DA); assay type: cell-based, human; details: HCT-116, 40 μM, after two hours
Text: The assay employed the cell-permeable fluorogenic probe 2′,7′-dichlorodihydrofluorescin diacetate [DCFH-DA] (Sigma Aldrich, St. […] In brief, DCFH-DA is diffused into cells and is deacetylated by cellular esterases to non-fluorescent 2′,7′-dichlorodihydrofluorescin (DCFH), which is rapidly oxidized to highly fluorescent 2′,7′-dichlorodihydrofluorescein (DCF) by intracellular hydrogen peroxide, or other low molecular weight peroxides. Measured fluorescence intensity is thus proportional to the amount of such peroxides in the cell at a given time. Human colon cancer cells HCT-116 or HT-29 were seeded in 96-well black-sided, clear-bottomed culture plates, with 5000 cells/well and were allowed to adhere for 24 hours in a 37° C. incubator with 5% CO2. […] After desired incubation times of 0, 2, 4, 8, or 24 hours, media and test compounds were aspirated. Cells were washed three times with 200 μL PBS before addition of 100 μL 1 mM DCF-DA. The fluorogenic probe permeated cell membranes and was processed to DCF for one hour at 37° C. After incubation, plates were immediately placed in a Biotek microplate reader to measure fluorescence at wavelengths of 485 (excitation) and 528 (emission). Raw values were normalized to DMSO control for each time point and are presented as fold induction versus 0 hour time point (n=3).

[2] = Kinetic study of [6]-shogaol metabolism to M6 in liver microsomes; details: human liver microsomes 0.1 mg/mL, 30 min, [6]-shogaol 7.8 to 2000 μM
Method: To estimate kinetic parameters of metabolism of [6]-shogoal to major product M6 in liver microsomes from human and other species, the incubation conditions were optimized to ensure that formation rate of M6 was in the linear range in relation to incubation time and protein concentration. [6]-Shogaol (7.81, 15.63, 31.25, 62.5, 125, 250, 500, 1000, and 2000 μM) was incubated with liver microsomes from mouse (MLM), rat (RLM), dog (DLM), monkey (CyLM), and human (HLM) (0.1 mg/mL each, respectively) for 30 minutes. All incubations were performed in triplicate. The apparent Km and Vmax values were calculated from analysis of experimental data according to the Michaelis-Menten equation, and the results were graphically represented (for HLM) by an Eadie-Hofstee plot. Kinetic constants were reported as the value+/−S.E. of the parameter estimate.

[3] = as above; assay type: in vitro ADME, monkey; details: monkey liver microsomes 0.1 mg/mL, 30 min
Method: All incubations were performed in triplicate.

[4] = system: human lung cancer cells H-1299; assay: Cell Death Detection ELISA apoptosis induction (Part 3); assay type: cell-based; details: H-1299, 10 μM, 24 hours
Method: (§1) Human colon cancer cells HCT-116 and human lung cancer cells H-1299 were plated in 96-well plates at a density of 5000 cells/well and allowed to attach overnight at 37° C. M14, M15, or [6]-shogaol in DMSO, or DMSO control, diluted in media, were added to cells and incubated for an additional 24 hours at 37° C. After 24 hours, media containing compound was removed and cells were lysed in their respective wells with reagents from a Cell Death Detection ELISA^PLUS kit from Roche Applied Science (Mannheim, Germany). Samples were harvested after cell lysates were spun down at 300 g for 10 minutes. To streptavidin coated microplates, 20 μL samples were added, and mixed with 80 μL Immunoreagent, which consisted of anti-histone-biotin, and anti-DNA-POD, and incubated with gentle shaking for 2 hours at room temperature. After incubation, Immunoreagent was removed and samples were washed 3 times with 250 μL incubation buffer. Substrate solution, ABTS, was added to each well and color was developed for 15 minutes before stopping the reaction with ABTS stop solution and reading absorbance on a microplate reader at 430 nm. Experiments were performed in triplicate and the average is given in comparison to DMSO control with standard deviation.

[5] = system: human colon cancer cells HCT-116; assay: as above; assay type: cell-based; details: HCT-116, 10 μM, 24 hours
Method: as §1

Compound	ROS induction [1]	Vmax of M6 formation [2]	Km ([2]; read-out: Km of M6 formation) [µM]	Vmax of M6 formation [3]	Km ([3]; read-out: Km of M6 formation) [µM]	induction of apoptosis compared to DMSO control [4] [fold]	induction of apoptosis compared to DMSO control [5] [fold]
CCCCCC(CC(=O)CCc1ccc(O)c(OC)c1)SC[C@H](N)C(=O)O (stereo partly shown) [M2, 5-cysteinyl-[6]-shogaol]	greater than 2 fold	–	–	–	–	–	–
CCCCC/C=C/C(=O)CCc1ccc(O)c(OC)c1 [[6]-shogaol, reference compound]	–	10.82+/−0.47 nanomoles per minute per milli	45.6	2.99+/−0.28 nanomoles per minute per milli	424	~2	1
